{"source": "patent US20140335179A1", "about": "“[…] OF ATORVASTATIN HEMICALCIUM” (DSM SINOCHEM PHARMACEUTICALS NETHERLANDS B.V., priority 2011, published 2014)", "key": {"[1]": {"assay": "Determination of intrinsic dissolution rate (IDR), stationary disc method, USP 24 apparatus", "format": "physicochemical", "conditions": "37°C, 100 rpm, hemi calcium salt; for IDR, mean value: 50 mM sodium dihydrogen phosphate buffer pH 6.8 with 2% w/v sodium lauryl sulphate", "experimental": "IDR of crystalline and amorphous atorvastatin hemi-calcium samples was performed by the stationary disc method using USP 24 apparatus. The discs were prepared by compacting 100 mg of powder at 800 psi pressure in a hydraulic press (Hydraulic Unit Model 3912, Carver Inc., WI) with a dwell time of 15 sec, in 8 mm punch die set (surface area 0.5 cm^2). The dissolution studies were performed in 500 ml of 50 mM sodium dihydrogen phosphate buffer (pH 6.8) containing 2% w/v sodium lauryl sulphate maintained at a temperature of 37±0.5° C. and a rotational speed of 100 rpm. Samples were withdrawn at regular intervals, replaced with dissolution medium, and analyzed by UV spectrophotometry at 242 nm up to 60 minutes."}, "[2]": {"conditions": "mean value of 35 separate batches", "experimental": "• Instrument: The PSD was determined using a Malvern Mastersizer 2000 equipped with hydro 2000S(A), flow cell, Fourier lenses and a multi-element detector • Data handling system: Malvern Mastersizer 2000 version 5.21 • Technique used: Wet method • Optical parameters: Optical presentation comprising of: • Particle RI: 1.5 • Absorption: 0 • Dispersant RI: 1.375 or 1.4 • Analysis Model: General purpose • Sample measurement snaps: 5000 • Background meas. snaps: 5000 • No. of measurement cycles: 5 • Delay between measurements: 5 sec • Preparation of sample solution: About 25 mg of the sample was weighed in a beaker and about 20 mL of dispersion medium was added with constant stirring and sonification for 30 sec resulting in a uniform dispersion. After sonification the measurement was performed after the obscure value was stabilized between 10-20% • Procedure: • a. The flow cell was assembled to the instrument • b. Dispersion medium poured to Hydro 2000S(A) unit • c. Stirrer speed was set at 2200 rpm • d. Instrument was aligned after feeding the required parameters • e. Background was measured • f. Sample was analyzed by recording five measurements for each sample preparation and the mean RSD values were collected at D(v, 0.1), D(v, 0.5) and D(v, 0.9)"}, "[3]": {"assay": "Specific surface area determination by nitrogen gas sorption (BET)", "format": "physicochemical", "conditions": "individual samples, hemi calcium salt", "experimental": "Specific surface area of the samples was determined using nitrogen gas sorption (Smartsorb, Smart Instruments, Mumbai, India). Prior to measurements, weighed samples were regenerated by degassing to remove moisture and contamination. The regenerated sample was dipped in liquid nitrogen and the quantity of the adsorbed gas was measured using thermal conductivity detector and then integrated using electronic circuit in terms of counts. The instrument was calibrated by injecting known quantity of nitrogen. The measured parameters were then used to calculate surface area of the sample by employing the adsorption theories of Brunauer, Emmett and Teller (BET)."}}, "note": "Where “and” joins values, the source holds several entries; their conditions need not be identical. Equal values may be shown once.", "data": [{"smiles": "CC(C)c1c(C(=O)Nc2ccccc2)c(-c2ccccc2)c(-c2ccc(F)cc2)n1CC[C@@H](O)C[C@@H](O)CC(=O)O.CC(C)c1c(C(=O)Nc2ccccc2)c(-c2ccccc2)c(-c2ccc(F)cc2)n1CC[C@@H](O)C[C@@H](O)CC(=O)O.CC(C)c1c(C(=O)Nc2ccccc2)c(-c2ccccc2)c(-c2ccc(F)cc2)n1CC[C@@H](O)C[C@@H](O)CC(=O)[O-].CC(C)c1c(C(=O)Nc2ccccc2)c(-c2ccccc2)c(-c2ccc(F)cc2)n1CC[C@@H](O)C[C@@H](O)CC(=O)[O-].[Ca+2]", "note": "(relative stereo) [amorphous atorvastatin, [R-(R*,R*)]-2-(4-fluorophenyl)-β,δ-dihydroxy-5-(1-methylethyl)-3-phenyl-4-[(phenylamino)carbonyl]-1H-pyrrole-1-heptanoic acid hemi calcium salt, reference compound]", "values": [{"measurement": "IDR, mean value", "setting": "[1]", "value": 0.281, "unit": "mg/cm^2/min"}]}, {"smiles": "CC(C)c1c(C(=O)Nc2ccccc2)c(-c2ccccc2)c(-c2ccc(F)cc2)n1CC[C@@H](O)C[C@@H](O)CC(=O)O.CC(C)c1c(C(=O)Nc2ccccc2)c(-c2ccccc2)c(-c2ccc(F)cc2)n1CC[C@@H](O)C[C@@H](O)CC(=O)O.CC(C)c1c(C(=O)Nc2ccccc2)c(-c2ccccc2)c(-c2ccc(F)cc2)n1CC[C@@H](O)C[C@@H](O)CC(=O)[O-].CC(C)c1c(C(=O)Nc2ccccc2)c(-c2ccccc2)c(-c2ccc(F)cc2)n1CC[C@@H](O)C[C@@H](O)CC(=O)[O-].[Ca+2]", "note": "(relative stereo) [crystalline atorvastatin hemi-calcium having a well-defined ] [[R-(R*,R*)]-2-(4-fluorophenyl)-β,δ-dihydroxy-5-(1-methylethyl)-3-phenyl-4-[(phenylamino)carbonyl]-1H-pyrrole-1-heptanoic acid hemi calcium salt]", "values": [{"measurement": "IDR, mean value", "setting": "[1]", "value": 0.132, "unit": "mg/cm^2/min"}, {"measurement": "IDR values of three samples", "setting": "[1]; three different micronized samples of the Example, pH 6.8 buffer with 2% SLS", "value": "0.146±0.013 mg/cm^2/min and 0.130±0.017 mg/cm^2/min and 0.109±0.006 mg/cm^2/min"}, {"measurement": "PSD d10", "setting": "[2]", "value": 3, "unit": "μm"}, {"measurement": "PSD d50", "setting": "[2]", "value": 6, "unit": "μm"}, {"measurement": "PSD d90", "setting": "[2]", "value": 12, "unit": "μm"}, {"measurement": "surface area", "setting": "[3]", "value": "8.550±0.051 m^2/g and 8.384±0.303 m^2/g and 8.684±0.216 m^2/g"}]}]}
